Earlier results as cited in US7456204B2, “Cyclohexylglycine derivatives as dipeptidyl peptidase inhibitors for the treatment or prevention of diabetes” (Merck & Co., Inc., priority 2003, dated 2008).

Key:
[1] = tested on: cardiac allograft survival; settings: rats; from day 7 to day 14
[2] = tested on: hematopoiesis; settings: mouse, cyclophosphamide-induced neutropenia
[3] = biological target: T1, DP-IV (Homo sapiens, UniProt P27487)
T1 construct: GRF is rapidly degraded in plasma to GRF[3-44]
T1 sequence (P27487 39-766 limits assumed): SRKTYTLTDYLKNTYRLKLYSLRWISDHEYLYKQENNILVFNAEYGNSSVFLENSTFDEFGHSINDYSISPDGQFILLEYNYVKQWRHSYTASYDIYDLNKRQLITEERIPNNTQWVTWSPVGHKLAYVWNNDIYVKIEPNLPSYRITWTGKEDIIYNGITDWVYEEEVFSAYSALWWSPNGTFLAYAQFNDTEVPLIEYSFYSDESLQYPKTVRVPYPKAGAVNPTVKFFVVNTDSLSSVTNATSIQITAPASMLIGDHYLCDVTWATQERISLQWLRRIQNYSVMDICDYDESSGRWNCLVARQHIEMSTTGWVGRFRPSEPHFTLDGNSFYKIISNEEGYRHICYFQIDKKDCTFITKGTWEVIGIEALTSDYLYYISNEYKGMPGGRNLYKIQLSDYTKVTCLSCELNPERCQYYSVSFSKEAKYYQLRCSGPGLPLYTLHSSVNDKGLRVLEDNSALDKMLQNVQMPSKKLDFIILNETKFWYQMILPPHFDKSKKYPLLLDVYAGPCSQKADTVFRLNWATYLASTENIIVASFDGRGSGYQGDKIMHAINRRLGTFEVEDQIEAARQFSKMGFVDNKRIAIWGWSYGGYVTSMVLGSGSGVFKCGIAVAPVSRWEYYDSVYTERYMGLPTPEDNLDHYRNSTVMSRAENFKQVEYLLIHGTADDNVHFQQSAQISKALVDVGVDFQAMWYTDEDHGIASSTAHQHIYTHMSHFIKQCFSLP

In the case of `CC(C)N1CCC(c2ccccc2)(c2ccccc2)CC1` [Prodipine, Pro-Pro-diphenyl-phosphonate], the cardiac allograft survival [1] is given as “double cardiac allograft survival”.

In the case of `CC(C)[C@H](N)C(=O)N1CCC[C@H]1B(O)O` [Val-Boro-Pro], the hematopoiesis [2] is listed as “stimulated hematopoiesis”.

For `CC[C@H](C)[C@H](N)C(=O)N1CCC[C@H]1C(=O)N[C@H](C(=O)O)[C@@H](C)CC` [diprotin A], the “degradation of GRF in plasma to GRF[3-44]” value [3] is given as “prevented”.
